Results reported in patent US5032384A, “Compositions and method for the treatment of disease” (Block Drug Company, Inc., priority 1989, dated 1991).

Target: cyclooxygenase cascade
Experiment: Inhibition of PGE2 synthesis (assay of cyclooxygenase products, 14C arachidonate incorporation) in homogenate of inflamed human gingival tissue
Format: biochemical
Procedure: A large pool of inflamed human gingival tissue was obtained from patients with periodontitis who were undergoing routine periodontal surgery. The tissues were immediately stored in liquid nitrogen prior to use or were used fresh. The assay of cyclooxygenase products was performed as a modification of the assay of El Attar et al., J. Periodon. […] Pooled tissue was weighed and homogenized at 0°-4° C. with a Polytron® (Brinkman) homogenizer in a 0.2 M TRIS buffer, pH 8.0, at a final concentration of 20 mg/ml. After centrifugation for 10 minutes at 1200×g, the supernatant was divided into 3 ml aliquots for incubation in the presence or absence of a test compound.
Prostanoids were extracted as described by Powell, Methods in Eng., 86, 467 (1982) using a Sep-Pak-C18 cartridge from Waters Associates. The Sep-Pak was prepared by the sequential elution of 20 milliliters of ethanol and 20 milliliters of water. The sample was then adjusted to 15% ethanol, pH 3.0, with acetic acid and applied to the column. […]
These are readily separated and quantified using a 4.6×100 nm RP-18 Spheri-5u column from Brownle Labs. A Flow-One radioactivity monitor simultaneously measured radioactivity while monitoring elution at 192 nanometers.
The net incorporation of the 14C arachidonate was measured in the absence of the test substance in order to determine the maximum activity of the cyclooxygenase cascade.

Row | IC50 value of alpha-tocopherol (inhibition of PGE2 synthesis) (change in presence of ketoprofen) | Compound | IC50 value of ketoprofen (inhibition of PGE2 synthesis) (change in presence of alpha-tocopherol)
1 |  | CC(C(=O)O)c1cccc(C(=O)c2ccccc2)c1 (centres unmarked) [ketoprofen] | lowered
2 | lowered | Cc1c(C)c2c(c(C)c1O)CCC(C)(CCCC(C)CCCC(C)CCCC(C)C)O2 (stereo not drawn) [alpha-tocopherol] | 
